One assay relates to tumor cell lines. Briefly: Inhibition of cellular proliferation in tumor cell lines (CellTiter-Glo). The assay is classed as cell-based. Conditions: 50% growth inhibition at 72 hours of continuous compound exposure; cell line not specified; read-out: Biological Activity GI50. The method, then:
Cells are plated in 96-well plates at densities of about 500 cells per well of a 96-well plate and are allowed to grow for 24 hours. The cells are then treated with various concentrations of compounds for 72 hours. Then, 100 μl of CellTiter-Glo® solution are added. The CellTiter-Glo® assay measures the amount of ATP present in the well after lysing the cells; the ATP released is used in an enzymatic reaction including the enzyme Luciferease and its substrate Luciferin. The amount of light emitted is proportional to the amount of ATP, which in turn is proportional to the number of live cells in the well. (see Promega product catalog #G7573, CellTiter-Glo® Luminescent Cell Viability Assay). The cells are then incubated in the dark for 30 minutes. The amount of luminescence is determined for each well using a Wallac Trilux plate reader, which correlates with the number of cells per well. The number of viable cells in the wells that receive only DMSO (0.5%) serve as an indication of 0°/a inhibition, while wells without cells serve as 100% inhibition of cell growth. The compound concentration that results in a 50% growth inhibition (GI50) is determined graphically from sigmoidal dose-response curves of log-transformed dose values versus cell counts (percent of control) at 72 hours of continuous compound exposure.
The cell lines used are listed below.
The cell proliferation assay is performed as described above. • Cancer Cell Lines • Colo 205—colon carcinoma • RPMI 1640+10% FBS+1% L-glutamine+1% P/S+1% NaPyr.+Hepes+4.5 g/L Glucose+1% NaBicarb. • MDA 435—breast cancer—high met • EMEM+10% FBS+1% P/S+1% L-Glutamine+1% NEAA+1% NaPyr+1% vitamins • HCT-15 and HCT116—colon carcinoma • RPMI 1640+10% FBS+1% L-glutamine+1% P/S • Drug Resistant Cell Lines • KB3.1—[…] epidermal carcinoma; parental cell line • Iscove's+10% FBS+1% L-glutamine+1% P/S • KBV1—p-glycoprotein associated multi-drug resistant cell line • RPMI 1640+10% FBS+1% L-glutamine+1% P/S+0.2 ug/mL Vinblastine • KB85—p-glycoprotein associated multi-drug resistant cell line • DMEM+10% FBS+1% L-glutamine+1% P/S+10 ng/mL Colchicine

Assay [1] concerns the target motor domain of human KSP (Eg 5, KNSL1) (Homo sapiens (Human), UniProt P52732). Description: Assay for determining KSP activity (microtubule-stimulated ATPase, Biomol Green). Conditions: KSP motor domain 45 nM, microtubules 35 μg/mL, ATP, 1 hour RT, absorbance 630 nm; read-out: Biological Activity IC50. The assay is classed as biochemical. The source says:
This example provides a representative in vitro assay for determining KSP activity in vitro. Purified microtubules obtained from bovine brain were purchased from Cytoskeleton Inc. (Denver, Colo., USA). The motor domain of human KSP (Eg 5, KNSL1) was cloned, expressed, and purified to greater than 95% homogeneity. Biomol Green was purchased from Affinity Research Products Ltd. (Matford Court, Exeter, Devon, United Kingdom). Microtubules and KSP motor protein (i.e., the KSP motor domain) were diluted in assay buffer (20 mM Tris-HCl (pH 7.5), 1 mM MgCl2, 10 mM DTT and 0.25 mg/mL BSA) to a final concentration of 35 μg/mL microtubules and 45 nM KSP. The microtubule/KSP mixture was then pre-incubated at 37° C. for 10 min to promote the binding of KSP to microtubules.
To each well of the testing plate (384-well plate) containing 1.25 μL of inhibitor or test compound in DMSO (or DMSO only in the case of controls) were added 25 μL of ATP solution (ATP diluted to a concentration of 300 μM in assay buffer) and 25 μL of the above-described microtubule/KSP solution. The plates were incubated at RT for 1 hour. Following incubation, 65 μL of Biomol Green (a malachite green-based dye that detects the release of inorganic phosphate) was added to each well. The plates were incubated for an additional 5-10 minutes then the absorbance at 630 nm was determined using a Victor II plate reader. The amount of absorbance at 630 nm corresponded to the amount of KSP activity in the samples. The IC50 of each inhibitor or test compound was then determined based on the decrease in absorbance at 630 nm at each concentration, via nonlinear regression using either XLFit for Excel or Prism data analysis software by GraphPad Software Inc.

Data on 8 compounds can be found in patent US8748626B2, “Oxazole and thiazole compounds as KSP inhibitors” (Novartis AG, priority 2010, dated 2014).

Sequence of motor domain of human KSP (Eg 5, KNSL1) (P52732 18-359): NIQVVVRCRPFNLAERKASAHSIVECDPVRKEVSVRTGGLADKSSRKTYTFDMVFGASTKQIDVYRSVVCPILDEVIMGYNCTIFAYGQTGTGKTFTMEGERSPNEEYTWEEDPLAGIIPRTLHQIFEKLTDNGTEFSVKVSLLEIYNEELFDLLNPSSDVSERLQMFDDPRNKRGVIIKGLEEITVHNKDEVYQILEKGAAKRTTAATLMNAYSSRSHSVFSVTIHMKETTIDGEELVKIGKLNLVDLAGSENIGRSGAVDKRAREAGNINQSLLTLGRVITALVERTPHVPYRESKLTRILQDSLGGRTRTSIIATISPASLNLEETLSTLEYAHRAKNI

As a reminder, the GI50 is the concentration that inhibits growth by half. In general, IC50 refers to the point on the concentration scale where inhibition reaches its midpoint. In the case of `CC(C)(C)[C@H](c1nc(-c2cc(F)ccc2F)sc1Cc1ccccc1)N(C[C@@H]1CNC[C@@H]1F)C(=O)[C@@H]1CCCO1` [Example 2, (S)-N-((R)-1-(5-benzyl-2-(2,5-difluorophenyl)thiazol-4-yl)-2,2-dimethylpropyl)-N-(((3S,4R)-4-fluoropyrrolidin-3-yl)methyl)tetrahydrofuran-2-carboxamide], the concentration for 50% growth inhibition (GI50) in the assay on tumor cell lines was found to be 1.4 nM. Moreover, in assay [1], the IC50 came to 10 nM.
For `C[C@H](O)C(=O)N(C[C@@H]1CNC[C@@H]1F)[C@@H](c1nc(-c2cc(F)ccc2F)sc1Cc1ccccc1)C(C)(C)C` [Example 1, (S)-N-((R)-1-(5-benzyl-2-(2,5-difluorophenyl)thiazol-4-yl)-2,2-dimethylpropyl)-N-(((3S,4R)-4-fluoropyrrolidin-3-yl)methyl)-2-hydroxypropanamide], in that order: 0.18 nM and 0.84 nM.
As for `C[C@H](O)C(=O)N(CC[C@H](N)CF)[C@H](c1nc(-c2cc(F)ccc2F)sc1Cc1ccccc1)C(C)(C)C` [Example 8, (S)-N-((S)-3-amino-4-fluorobutyl)-N-((S)-1-(5-benzyl-2-(2,5-difluorophenyl)thiazol-4-yl)-2,2-dimethylpropyl)-2-hydroxypropanamide], the GI50 in the assay with tumor cell lines was 944 nM.
Regarding `C[C@H](O)C(=O)N(CC[C@H](N)CF)[C@@H](c1nc(-c2cc(F)ccc2F)oc1Cc1ccccc1)C(C)(C)C` [Example 5, (S)-N-((S)-3-amino-4-fluorobutyl)-N-((R)-1-(5-benzyl-2-(2,5-difluorophenyl)oxazol-4-yl)-2,2-dimethylpropyl)-2-hydroxypropanamide], in the assay with tumor cell lines, the GI50 was 4.82 nM. Moreover, the IC50 in assay [1] was 2.54 nM.
With `C[C@H](O)C(=O)N(CC[C@H](N)CF)[C@H](c1nc(-c2cc(F)ccc2F)oc1Cc1ccccc1)C(C)(C)C` [Example 7, (S)-N-((S)-3-amino-4-fluorobutyl)-N-((S)-1-(5-benzyl-2-(2,5-difluorophenyl)oxazol-4-yl)-2,2-dimethylpropyl)-2-hydroxypropanamide], the half-maximal inhibitory concentration (IC50) in assay [1] was determined as 631 nM.
On to `C[C@H](O)C(=O)N(CC[C@H](N)CF)[C@@H](c1nc(-c2cc(F)ccc2F)sc1Cc1ccccc1)C(C)(C)C` [Example 3, (S)-N-((S)-3-amino-4-fluorobutyl)-N-((R)-1-(5-benzyl-2-(2,5-difluorophenyl)thiazol-4-yl)-2,2-dimethylpropyl)-2-hydroxypropanamide], for which the GI50 in the assay with tumor cell lines was found to be 2.2 nM. The half-inhibitory concentration (IC50) in assay [1] turned out to be 2.6 nM.
Take `C[C@H](O)C(=O)N(C[C@@H]1CNC[C@@H]1F)[C@H](c1nc(-c2cc(F)ccc2F)oc1Cc1ccccc1)C(C)(C)C` [Example 6, (S)-N-((S)-1-(5-benzyl-2-(2,5-difluorophenyl)oxazol-4-yl)-2,2-dimethylpropyl)-N-(((3S,4R)-4-fluoropyrrolidin-3-yl)methyl)-2-hydroxypropanamide]: the IC50 in assay [1] came out at 1000 nM.
As for `C[C@H](O)C(=O)N(C[C@@H]1CNC[C@@H]1F)[C@@H](c1nc(-c2cc(F)ccc2F)oc1Cc1ccccc1)C(C)(C)C` [Example 4, (S)-N-((R)-1-(5-benzyl-2-(2,5-difluorophenyl)oxazol-4-yl)-2,2-dimethylpropyl)-N-(((3S,4R)-4-fluoropyrrolidin-3-yl)methyl)-2-hydroxypropanamide], the GI50 in the assay with tumor cell lines came out at 3.5 nM. The IC50 in assay [1] amounted to 7.18 nM.
